The record followed here is patent publication US8003649B2 (AstraZeneca AB, priority 2007, dated 2011).

The target in the first test is T1, Androgen Receptor (AR) (Homo sapiens, UniProt P10275, T878A).
T1 construct: cell based immuno-fluorescence assay using the LNCaP prostate epithelial cell line; endogenous in cells; host or cells: LNCaP clone FGC (ATCC CRL-1740)
T1 sequence (P10275 1-920 T878A): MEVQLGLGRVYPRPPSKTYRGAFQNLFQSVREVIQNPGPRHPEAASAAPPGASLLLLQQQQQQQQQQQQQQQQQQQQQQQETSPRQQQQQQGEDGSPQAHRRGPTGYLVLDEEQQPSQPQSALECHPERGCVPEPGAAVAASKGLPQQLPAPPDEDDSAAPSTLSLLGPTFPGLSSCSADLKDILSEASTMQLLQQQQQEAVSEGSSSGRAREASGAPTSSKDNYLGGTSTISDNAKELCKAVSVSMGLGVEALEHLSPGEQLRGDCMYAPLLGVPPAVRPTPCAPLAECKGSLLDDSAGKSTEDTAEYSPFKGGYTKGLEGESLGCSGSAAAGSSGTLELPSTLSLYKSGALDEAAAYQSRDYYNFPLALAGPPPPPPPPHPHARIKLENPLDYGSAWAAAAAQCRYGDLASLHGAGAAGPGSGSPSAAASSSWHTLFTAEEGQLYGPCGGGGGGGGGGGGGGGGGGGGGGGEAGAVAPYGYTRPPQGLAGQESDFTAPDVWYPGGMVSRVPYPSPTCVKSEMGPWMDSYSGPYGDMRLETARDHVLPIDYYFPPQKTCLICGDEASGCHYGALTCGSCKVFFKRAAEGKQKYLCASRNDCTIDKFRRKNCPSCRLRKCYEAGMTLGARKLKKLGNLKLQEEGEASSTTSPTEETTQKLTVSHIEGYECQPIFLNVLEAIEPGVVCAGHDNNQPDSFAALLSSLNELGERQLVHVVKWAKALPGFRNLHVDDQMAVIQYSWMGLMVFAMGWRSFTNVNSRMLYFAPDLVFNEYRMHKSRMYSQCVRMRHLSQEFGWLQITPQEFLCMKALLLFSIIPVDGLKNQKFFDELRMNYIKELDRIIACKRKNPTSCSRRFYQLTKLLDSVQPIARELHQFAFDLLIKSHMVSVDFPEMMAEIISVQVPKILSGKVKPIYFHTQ
Description: LNCaP Androgen Receptor Down-regulation Cell Assay (immunofluorescence end point). In kind it is cell-based. The settings on record: LNCaP prostate carcinoma cells, compound incubation 20-22 hours, 50% reduction of the AR signal. Put shortly:
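LNCaP cells in medium with 5% charcoal-stripped FBS were plated overnight, then treated with a compound dilution series for 20-22 h at 37° C. After fixation, permeabilisation and immunostaining, AR-associated green fluorescence was quantified by laser-scanning microplate cytometry; AR down-regulation expressed as IC50 from fitted dose-response curves.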
By IC50 is commonly meant the concentration needed to halve the response being measured. Read a low IC50 as greater potency. As to `CS(=O)(=O)Oc1cccc(CN2CCN(c3ccc4nnc(C(F)(F)F)n4n3)CC2)c1` [Example 151, [3-[[4-[3-(trifluoromethyl)-[1,2,4]triazolo[4,3-b]pyridazin-6-yl]piperazin-1-yl]methyl]phenyl]methanesulfonate], the midpoint of inhibition, the IC50, lay at 3.1 µM.

Still in this test, the particulars now being: LNCaP prostate carcinoma cells, compound incubation 20-22 hours, 50% reduction of the AR signal; read-out: Androgen Receptor Down-regulation Assay (a) IC50/μM.
With `Cc1ccc(Sc2ccc(CN3CCN(c4ccc5nnc(C(F)(F)F)n5n4)CC3)cn2)cc1` [Example 124, 6-[4-[[6-(4-methylphenyl)sulfanylpyridin-3-yl]methyl]piperazin-1-yl]-3-(trifluoromethyl)-[1,2,4]triazolo[4,3-b]pyridazine], the DC50 was determined as 1.7 µM.

For the compound `Fc1ccc(-c2cccc(CN3CCN(c4ccc5nnc(C(F)(F)F)n5n4)CC3)c2)cc1` [Example 125, 6-[4-[[3-(4-fluorophenyl)phenyl]methyl]piperazin-1-yl]-3-(trifluoromethyl)-[1,2,4]triazolo[4,3-b]pyridazine], the DC50 was determined as 1.9 µM.

Turning to `Fc1ccc(Oc2ccc(CN3CCN(c4ccc5nnc(C(F)(F)F)n5n4)CC3)cc2)cc1` [Example 126, 6-[4-[[4-(4-fluorophenoxy)phenyl]methyl]piperazin-1-yl]-3-(trifluoromethyl)-[1,2,4]triazolo[4,3-b]pyridazine], the DC50 was determined as 2 µM.

For the compound `FC(F)(F)c1nnc2ccc(N3CCN(Cc4ccc(Br)cc4)CC3)nn12` [Example 127, 6-[4-[(4-bromophenyl)methyl]piperazin-1-yl]-3-(trifluoromethyl)-[1,2,4]triazolo[4,3-b]pyridazine], the DC50 was found to be 1.5 µM.

As for `CCN(CC)c1ccc(CN2CCN(c3ccc4nnc(C(F)(F)F)n4n3)CC2)cc1` [Example 128, N,N-diethyl-4-[[4-[3-(trifluoromethyl)-[1,2,4]triazolo[4,3-b]pyridazin-6-yl]piperazin-1-yl]methyl]aniline], the DC50 was 2.3 µM.

Take `CSc1ccc(CN2CCN(c3ccc4nnc(C(F)(F)F)n4n3)CC2)cc1` [Example 129, 6-[4-[(4-methylsulfanylphenyl)methyl]piperazin-1-yl]-3-(trifluoromethyl)-[1,2,4]triazolo[4,3-b]pyridazine]: the DC50 was 0.99 µM.

Regarding `CC(C)c1ccc(CN2CCN(c3ccc4nnc(C(F)(F)F)n4n3)CC2)cc1` [Example 130, 6-[4-[(4-propan-2-ylphenyl)methyl]piperazin-1-yl]-3-(trifluoromethyl)-[1,2,4]triazolo[4,3-b]pyridazine], the DC50 is 1.8 µM.

In the case of `FC(F)(F)Oc1ccc(CN2CCN(c3ccc4nnc(C(F)(F)F)n4n3)CC2)cc1` [Example 131, 6-[4-[[4-(trifluoromethoxy)phenyl]methyl]piperazin-1-yl]-3-(trifluoromethyl)-[1,2,4]triazolo[4,3-b]pyridazine], the DC50 stood at 4.1 µM.

On to `FC(F)(F)c1nnc2ccc(N3CCN(Cc4ccc(Oc5ccc(Cl)cc5)cc4)CC3)nn12` [Example 132, 6-[4-[[4-(4-chlorophenoxy)phenyl]methyl]piperazin-1-yl]-3-(trifluoromethyl)-[1,2,4]triazolo[4,3-b]pyridazine], for which the DC50 worked out at 2.6 µM.

Regarding `FC(F)(F)c1nnc2ccc(N3CCN(Cc4ccc(-c5ccccn5)cc4)CC3)nn12` [Example 134, 6-[4-[(4-pyridin-2-ylphenyl)methyl]piperazin-1-yl]-3-(trifluoromethyl)-[1,2,4]triazolo[4,3-b]pyridazine], the DC50 worked out at 1.8 µM.

As for `CCS(=O)(=O)c1ccc(CN2CCN(c3ccc4nnc(C(F)(F)F)n4n3)CC2)cc1` [Example 135, 6-[4-[(4-ethylsulfonylphenyl)methyl]piperazin-1-yl]-3-(trifluoromethyl)-[1,2,4]triazolo[4,3-b]pyridazine], the DC50 is 4.9 µM.

As for `FC(F)(F)c1nnc2ccc(N3CCN(Cc4ccc(Cl)nc4)CC3)nn12` [Example 137, 6-[4-[(6-chloropyridin-3-yl)methyl]piperazin-1-yl]-3-(trifluoromethyl)-[1,2,4]triazolo[4,3-b]pyridazine], the DC50 was 1.5 µM.

`C=CCOc1ccc(CN2CCN(c3ccc4nnc(C(F)(F)F)n4n3)CC2)cc1` [Example 139, 6-[4-[(4-prop-2-enoxyphenyl)methyl]piperazin-1-yl]-3-(trifluoromethyl)-[1,2,4]triazolo[4,3-b]pyridazine]: the DC50 came out at 2 µM.

Consider `CN(C)CCOc1ccc(CN2CCN(c3ccc4nnc(C(F)(F)F)n4n3)CC2)cc1` [Example 140, N,N-dimethyl-2-[4-[[4-[3-(trifluoromethyl)-[1,2,4]triazolo[4,3-b]pyridazin-6-yl]piperazin-1-yl]methyl]phenoxy]ethanamine], for which the DC50 came out at 7.1 µM.

For `COc1ccc(CN2CCN(c3ccc4nnc(C(F)(F)F)n4n3)CC2)cn1` [Example 142, 6-[4-[(6-methoxypyridin-3-yl)methyl]piperazin-1-yl]-3-(trifluoromethyl)-[1,2,4]triazolo[4,3-b]pyridazine], the DC50 was found to be 5.1 µM.

In the case of `FC(F)(F)c1nnc2ccc(N3CCN(Cc4ccc(N5CCOCC5)nc4)CC3)nn12` [Example 143, 6-[4-[(6-morpholin-4-ylpyridin-3-yl)methyl]piperazin-1-yl]-3-(trifluoromethyl)-[1,2,4]triazolo[4,3-b]pyridazine], the DC50 turned out to be 8.8 µM.

With `FC(F)(F)c1nnc2ccc(N3CCN(Cc4ccc(Oc5ccccc5)nc4)CC3)nn12` [Example 144, 6-[4-[(6-phenoxypyridin-3-yl)methyl]piperazin-1-yl]-3-(trifluoromethyl)-[1,2,4]triazolo[4,3-b]pyridazine], the DC50 turned out to be 4.9 µM.

Turning to `CCOc1ccc(CN2CCN(c3ccc4nnc(C(F)(F)F)n4n3)CC2)cn1` [Example 147, 6-[4-[(6-ethoxypyridin-3-yl)methyl]piperazin-1-yl]-3-(trifluoromethyl)-[1,2,4]triazolo[4,3-b]pyridazine], the DC50 amounted to 2.5 µM.

Take `CC(C)Oc1ccc(CN2CCN(c3ccc4nnc(C(F)(F)F)n4n3)CC2)cn1` [Example 148, 6-[4-[(6-propan-2-yloxypyridin-3-yl)methyl]piperazin-1-yl]-3-(trifluoromethyl)-[1,2,4]triazolo[4,3-b]pyridazine]: the DC50 came to 3.4 µM.

Regarding `OCc1cccc(CN2CCN(c3ccc4nnc(C(F)(F)F)n4n3)CC2)c1` [Example 149, [3-[[4-[3-(trifluoromethyl)-[1,2,4]triazolo[4,3-b]pyridazin-6-yl]piperazin-1-yl]methyl]phenyl]methanol], the DC50 worked out at 7.9 µM.

In the case of `CS(=O)(=O)Nc1cccc(CN2CCN(c3ccc4nnc(C(F)(F)F)n4n3)CC2)c1` [Example 150, N-[3-[[4-[3-(trifluoromethyl)-[1,2,4]triazolo[4,3-b]pyridazin-6-yl]piperazin-1-yl]methyl]phenyl]methanesulfonamide], the DC50 was 7.6 µM.

For the compound `CS(=O)(=O)Oc1ccc(CN2CCN(c3ccc4nnc(C(F)(F)F)n4n3)CC2)cc1` [Example 152, [4-[[4-[3-(trifluoromethyl)-[1,2,4]triazolo[4,3-b]pyridazin-6-yl]piperazin-1-yl]methyl]phenyl]methanesulfonate], the DC50 was 6.7 µM.

As to `NC(=O)COc1ccc(CN2CCN(c3ccc4nnc(C(F)(F)F)n4n3)CC2)cc1` [Example 153, 2-[4-[[4-[3-(trifluoromethyl)-[1,2,4]triazolo[4,3-b]pyridazin-6-yl]piperazin-1-yl]methyl]phenoxy]acetamide], the DC50 was found to be 7.9 µM.

For `N#CCOc1ccc(CN2CCN(c3ccc4nnc(C(F)(F)F)n4n3)CC2)cc1` [Example 154, 2-[4-[[4-[3-(trifluoromethyl)-[1,2,4]triazolo[4,3-b]pyridazin-6-yl]piperazin-1-yl]methyl]phenoxy]acetonitrile], the DC50 worked out at 1.6 µM.

For the compound `CCCCOc1cccc(CN2CCN(c3ccc4nnc(C(F)(F)F)n4n3)CC2)c1` [Example 157, 6-[4-[(3-butoxyphenyl)methyl]piperazin-1-yl]-3-(trifluoromethyl)-[1,2,4]triazolo[4,3-b]pyridazine], the DC50 amounted to 2.4 µM.

With `CCCc1ccc(CN2CCN(c3ccc4nnc(C(F)(F)F)n4n3)CC2)cc1` [Example 158, 6-[4-[(4-propylphenyl)methyl]piperazin-1-yl]-3-(trifluoromethyl)-[1,2,4]triazolo[4,3-b]pyridazine], the DC50 stood at 3 µM.

Turning to `CCc1ccc(CN2CCN(c3ccc4nnc(C(F)(F)F)n4n3)CC2)cc1` [Example 159, 6-[4-[(4-ethylphenyl)methyl]piperazin-1-yl]-3-(trifluoromethyl)-[1,2,4]triazolo[4,3-b]pyridazine], the DC50 came out at 1.4 µM.
